What all share (format): functional
Test [1] has as its system Staphylococcus aureus. Briefly: Antibacterial activity against rifamycin-resistance Staphylococcus aureus CB372.
The test system of test [2] is Staphylococcus aureus. The test can be described thus: Antibacterial activity against rifamycin-sensitive Staphylococcus aureus CB190 ATCC 29213.
Test [3] deals with Staphylococcus aureus. Briefly: Antibacterial activity against rifamycin-resistance Staphylococcus aureus CB370.

Structures are written as SMILES. ≈ marks a conversion by molar mass, not a printed value. Bounds are passed on as bounds.

In general, MIC refers to the smallest concentration in the dilution series that meets the test's criterion for growth inhibition. Read a high MIC as weaker potency.

Turning to `CO[C@H]1/C=C/O[C@@]2(C)Oc3c(C)c(O)c4c(=O)c(c5oc6cc(N7CCN(C(C)C)CC7)cc(O)c6nc-5c4c3/C2=N/O)NC(=O)/C(C)=C\C=C\[C@H](C)[C@H](O)[C@@H](C)[C@@H](O)[C@@H](C)[C@H](OC(C)=O)[C@@H]1C`, the MIC in test [1] amounted to 1 µg/mL (≈ 1.06 µM); in test [2], 0.008 µg/mL (≈ 0.00849 µM); in test [3], 32 µg/mL (≈ 34 µM).

For `CO[C@H]1/C=C/O[C@@]2(C)Oc3c(C)c(O)c4c(=O)c(c5oc6cc(N7CCN(CC(C)C)CC7)cc(O)c6nc-5c4c3/C2=N/O)NC(=O)/C(C)=C\C=C\[C@H](C)[C@H](O)[C@@H](C)[C@@H](O)[C@@H](C)[C@H](OC(C)=O)[C@@H]1C`, the MIC in test [1] turned out to be 2 µg/mL (≈ 2.09 µM); in test [2], 0.004 µg/mL (≈ 0.00418 µM); in test [3], 32 µg/mL (≈ 33.5 µM).

With `CO[C@H]1/C=C/O[C@@]2(C)Oc3c(C)c(O)c4c(=O)c(c5oc6cc(N7CCN(CC(C)C)CC7)cc(C)c6nc-5c4c3/C2=N/O)NC(=O)/C(C)=C\C=C\[C@H](C)[C@H](O)[C@@H](C)[C@@H](O)[C@@H](C)[C@H](OC(C)=O)[C@@H]1C`, the MIC is 4 µg/mL (≈ 4.19 µM) in test [1], 0.008 µg/mL (≈ 0.00838 µM) in test [2] and greater than 64 µg/mL in test [3].

Consider `CO[C@H]1/C=C/O[C@@]2(C)Oc3c(C)c(O)c4c(=O)c(c5oc6cc(N7CCN(C)CC7)cc(C)c6nc-5c4c3/C2=N/O)NC(=O)/C(C)=C\C=C\[C@H](C)[C@H](O)[C@@H](C)[C@@H](O)[C@@H](C)[C@H](OC(C)=O)[C@@H]1C`, for which the MIC in test [1] is 1 µg/mL (≈ 1.1 µM); in test [2], 0.004 µg/mL (≈ 0.00439 µM); in test [3], 16 µg/mL (≈ 17.5 µM).

Turning to `CCN1CCN(c2cc(O)c3nc4c5c6c7c(C)c(O)c5c(=O)c(c-4oc3c2)NC(=O)/C(C)=C\C=C\[C@H](C)[C@H](O)[C@@H](C)[C@@H](O)[C@@H](C)[C@H](OC(C)=O)[C@H](C)[C@@H](OC)/C=C/O[C@@](C)(O7)/C6=N\O)CC1`, the MIC in test [1] worked out at 2 µg/mL (≈ 2.16 µM); in test [2] it was 0.008 µg/mL (≈ 0.00862 µM); in test [3], 32 µg/mL (≈ 34.5 µM).

For `CCCCN1CCN(c2cc(O)c3nc4c5c6c7c(C)c(O)c5c(=O)c(c-4oc3c2)NC(=O)/C(C)=C\C=C\[C@H](C)[C@H](O)[C@@H](C)[C@@H](O)[C@@H](C)[C@H](OC(C)=O)[C@H](C)[C@@H](OC)/C=C/O[C@@](C)(O7)/C6=N\O)CC1`, the values for the MIC in test [1], in test [2] and in test [3] were 2 µg/mL (≈ 2.09 µM), 0.004 µg/mL (≈ 0.00418 µM) and 16 µg/mL (≈ 16.7 µM), respectively.

For `CO[C@H]1/C=C/O[C@@]2(C)Oc3c(C)c(O)c4c(=O)c(c5oc6cc(N7CCN(CC(C)C)CC7)ccc6nc-5c4c3/C2=N/O)NC(=O)/C(C)=C\C=C\[C@H](C)[C@H](O)[C@@H](C)[C@@H](O)[C@@H](C)[C@H](OC(C)=O)[C@@H]1C`, the MIC in test [1] came out at 0.5 µg/mL (≈ 0.532 µM); in test [2] it was 0.004 µg/mL (≈ 0.00425 µM); in test [3], 8 µg/mL (≈ 8.51 µM).

Turning to `CO[C@H]1/C=C/O[C@@]2(C)Oc3c(C)c(O)c4c(c3/C2=N/O)C(=O)C=C(NC(=O)/C(C)=C\C=C\[C@H](C)[C@H](O)[C@@H](C)[C@@H](O)[C@@H](C)[C@H](OC(C)=O)[C@@H]1C)C4=O`, the MIC was 0.5 µg/mL (≈ 0.703 µM) in test [1], 0.002 µg/mL (≈ 0.00281 µM) in test [2] and 32 µg/mL (≈ 45 µM) in test [3].

`CO[C@H]1/C=C/O[C@@]2(C)Oc3c(C)c(O)c4c(=O)c(c5oc6cc(N7CCN(CC8CCCCC8)CC7)ccc6nc-5c4c3/C2=N/O)NC(=O)/C(C)=C\C=C\[C@H](C)[C@H](O)[C@@H](C)[C@@H](O)[C@@H](C)[C@H](OC(C)=O)[C@@H]1C`: the MIC was found to be 2 µg/mL (≈ 2.04 µM) in test [1], 0.008 µg/mL (≈ 0.00816 µM) in test [2] and 16 µg/mL (≈ 16.3 µM) in test [3].

`CO[C@H]1/C=C/O[C@@]2(C)Oc3c(C)c(O)c4c(=O)c(c5oc6cc(N7CCN(CC8CCCCC8)CC7)cc(O)c6nc-5c4c3/C2=N/O)NC(=O)/C(C)=C\C=C\[C@H](C)[C@H](O)[C@@H](C)[C@@H](O)[C@@H](C)[C@H](OC(C)=O)[C@@H]1C`: the MIC in test [1] worked out at 8 µg/mL (≈ 8.03 µM); in test [2] it was 0.008 µg/mL (≈ 0.00803 µM); in test [3], 8 µg/mL (≈ 8.03 µM).

On to `CO[C@H]1/C=C/O[C@@]2(C)Oc3c(C)c(O)c4c(=O)c(c5oc6cc(N7CCN(CC8CCN(C)CC8)CC7)cc(O)c6nc-5c4c3/C2=N/O)NC(=O)/C(C)=C\C=C\[C@H](C)[C@H](O)[C@@H](C)[C@@H](O)[C@@H](C)[C@H](OC(C)=O)[C@@H]1C`, for which the MIC in test [1] turned out to be 4 µg/mL (≈ 3.96 µM); in test [2], 0.13 µg/mL (≈ 0.129 µM); in test [3], 32 µg/mL (≈ 31.6 µM).

Turning to `CO[C@H]1/C=C/O[C@@]2(C)Oc3c(C)c(O)c4c(=O)c(c5oc6cc(N7CCN(C(C)C)CC7)ccc6nc-5c4c3/C2=N/O)NC(=O)/C(C)=C\C=C\[C@H](C)[C@H](O)[C@@H](C)[C@@H](O)[C@@H](C)[C@H](OC(C)=O)[C@@H]1C`, the results for the MIC in test [1], in test [2] and in test [3] were 0.12 µg/mL (≈ 0.13 µM), 0.0005 µg/mL (≈ 0.00054 µM) and 8 µg/mL (≈ 8.64 µM), respectively.

Turning to `CO[C@H]1/C=C/O[C@@]2(C)Oc3c(C)c(O)c4c(=O)c(c5oc6cc(N7CCN(C)CC7)cc(O)c6nc-5c4c3/C2=N/O)NC(=O)/C(C)=C\C=C\[C@H](C)[C@H](O)[C@@H](C)[C@@H](O)[C@@H](C)[C@H](OC(C)=O)[C@@H]1C`, the figures for the MIC in test [1], in test [2] and in test [3] were 1 µg/mL (≈ 1.09 µM), 0.004 µg/mL (≈ 0.00438 µM) and 32 µg/mL (≈ 35 µM), respectively.

Take `CO[C@H]1/C=C/O[C@@]2(C)Oc3c(C)c(O)c4c(=O)c(c5oc6cc(N7CCN(CC(C)C)CC7)cc(O)c6nc-5c4c3C2=O)NC(=O)/C(C)=C\C=C\[C@H](C)[C@H](O)[C@@H](C)[C@@H](O)[C@@H](C)[C@H](OC(C)=O)[C@@H]1C` [RIFALAZIL]: the MIC was 2 µg/mL (≈ 2.13 µM) in test [1], 0.004 µg/mL (≈ 0.00425 µM) in test [2] and 32 µg/mL (≈ 34 µM) in test [3].

On to `CO[C@H]1/C=C/O[C@@]2(C)Oc3c(C)c(O)c4c(O)c(c(/C=N/N5CCN(C)CC5)c(O)c4c3C2=O)NC(=O)/C(C)=C\C=C\[C@H](C)[C@H](O)[C@@H](C)[C@@H](O)[C@@H](C)[C@H](OC(C)=O)[C@@H]1C` [RIFAMPIN], for which the MIC is 16 µg/mL (≈ 19.4 µM) in test [1], 0.008 µg/mL (≈ 0.00972 µM) in test [2] and greater than 64 µg/mL in test [3].

As to `CO[C@H]1/C=C/O[C@@]2(C)Oc3c(C)c(O)c4c(c3C2=O)C(=O)C=C(NC(=O)/C(C)=C\C=C\[C@H](C)[C@H](O)[C@@H](C)[C@@H](O)[C@@H](C)[C@H](OC(C)=O)[C@@H]1C)C4=O` [RIFAMYCIN S], the MIC in test [1] was 4 µg/mL (≈ 5.75 µM); in test [2], 0.016 µg/mL (≈ 0.023 µM); in test [3], greater than 64 µg/mL.

With `CO[C@H]1/C=C/O[C@@]2(C)Oc3c(C)c(O)c4c(O)c(cc(O)c4c3C2=O)NC(=O)/C(C)=C\C=C\[C@H](C)[C@H](O)[C@@H](C)[C@@H](O)[C@@H](C)[C@H](OC(C)=O)[C@@H]1C` [RIFAMYCIN], the MIC is 2 µg/mL (≈ 2.87 µM) in test [1], 0.016 µg/mL (≈ 0.0229 µM) in test [2] and greater than 64 µg/mL in test [3].

Source of the values: ChEMBL document CHEMBL1137477, “Preparation and in vitro anti-staphylococcal activity of novel 11-deoxy-11-hydroxyiminorifamycins” (2007).
